Assay [1] has as its target T1, KDM2A (Homo sapiens, UniProt Q9Y2K7).
T1 sequence (Q9Y2K7 1-1162): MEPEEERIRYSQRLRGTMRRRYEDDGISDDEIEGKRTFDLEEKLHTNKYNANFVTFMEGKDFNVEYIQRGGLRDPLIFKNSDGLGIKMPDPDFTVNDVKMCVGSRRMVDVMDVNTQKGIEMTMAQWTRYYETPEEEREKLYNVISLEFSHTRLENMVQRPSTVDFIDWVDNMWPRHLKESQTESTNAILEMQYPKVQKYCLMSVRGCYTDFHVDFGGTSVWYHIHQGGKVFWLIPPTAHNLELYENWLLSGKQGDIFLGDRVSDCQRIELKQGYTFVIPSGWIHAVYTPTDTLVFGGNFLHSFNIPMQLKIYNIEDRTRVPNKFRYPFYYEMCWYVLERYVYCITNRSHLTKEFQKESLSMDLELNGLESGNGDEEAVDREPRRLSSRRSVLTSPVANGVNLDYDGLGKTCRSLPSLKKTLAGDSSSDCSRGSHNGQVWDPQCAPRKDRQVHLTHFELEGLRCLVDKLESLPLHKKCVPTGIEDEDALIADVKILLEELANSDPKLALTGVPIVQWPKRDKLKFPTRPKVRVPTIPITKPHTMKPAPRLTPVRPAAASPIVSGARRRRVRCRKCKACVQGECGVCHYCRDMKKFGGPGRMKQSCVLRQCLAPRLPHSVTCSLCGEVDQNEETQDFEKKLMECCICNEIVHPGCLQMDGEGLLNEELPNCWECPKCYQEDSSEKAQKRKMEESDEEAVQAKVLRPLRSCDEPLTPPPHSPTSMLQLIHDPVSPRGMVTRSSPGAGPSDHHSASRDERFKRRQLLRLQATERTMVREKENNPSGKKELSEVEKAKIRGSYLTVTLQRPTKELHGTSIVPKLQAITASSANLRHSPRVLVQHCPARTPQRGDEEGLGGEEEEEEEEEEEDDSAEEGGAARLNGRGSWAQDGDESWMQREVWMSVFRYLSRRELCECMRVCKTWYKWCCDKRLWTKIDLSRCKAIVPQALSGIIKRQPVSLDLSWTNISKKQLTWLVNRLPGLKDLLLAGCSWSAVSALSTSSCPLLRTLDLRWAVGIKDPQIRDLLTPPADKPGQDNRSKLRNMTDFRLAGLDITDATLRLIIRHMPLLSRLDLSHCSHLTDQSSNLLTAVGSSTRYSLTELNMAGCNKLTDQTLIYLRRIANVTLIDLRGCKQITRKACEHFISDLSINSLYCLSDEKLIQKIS
As to the kind of experiment: High-content immunofluorescence (IF) assay, overexpressed full-length FLAG-tagged KDM in HeLa cells. The following applies: HeLa cells overexpressing WT KDM2A, 24 h; read-out: KDM2A, in cells, EC50 by IF assay (head: IC50). It is filed as cell-based. How it is done:
(§1) HeLa cells (ATCC) were cultured at 37 °C and 5% CO2 in Minimal Essential Media—Eagle (Sigma-Aldrich, UK) supplemented with 10% heat-inactivated foetal calf serum (FCS) (Gibco, UK), and 1% L-glutaMAX (Gibco, UK) in T75 flasks (Sarstedt, UK) and passaged regularly with TrypLE (Life Technologies, UK) before cells reached confluence. On day 0, 7000 cells per well were plated on a 96-well clear bottom CellCarrier plate (PerkinElmer, UK). The next day the cells were transfected with Lipofectamine 3000 (ThermoFisher Scientific, UK) following the manufacturer’s instructions. Briefly, 0.1 µg of plasmid DNA (encoding for the respective demethylase) and 0.15 µL of Lipofectamine 3000 were diluted in separate tubes containing 5 µL OptiMEM. 0.15 µL of P3000 was added to the tube with the DNA. The two solutions were then mixed gently and allowed to incubate for 5 min at room temperature. Next, the DNA-lipid complex was added to the cells for 4 h at 37 °C and 5% CO2.
(§2) Compound dilutions were made in a 96-well PCR plate (Starlab, UK). The culture medium was supplemented with 0.4% DMSO so that the solvent concentration was maintained throughout. Compounds were serially diluted at a 1:2 or 1:3 dilution ratio. Next, the cell culture plate was removed from the incubator and the medium was gently aspirated and replaced with the fresh medium containing diluted compounds.
(§3) Then cells were rinsed once with PBS and blocked for 30 min at room temperature using 3% v/v foetal calf serum diluted in PBS.

Assay [2] deals with KDM6B (Homo sapiens, UniProt O15054). Described as above. The format is cell-based. The following applies: HeLa cells overexpressing WT KDM6B, H3K27me3 mark, 24 h; read-out: KDM6B, in cells, EC50 by IF assay (head: IC50). As for the experimental part: as §1, §2, §3

SMILES strings stand for the structures.

The source of these data is PMC5333395, “Assessing histone demethylase inhibitors in cells: lessons learned” (Epigenetics & Chromatin, 2017).

KDM6B, sequence (O15054 whole entry): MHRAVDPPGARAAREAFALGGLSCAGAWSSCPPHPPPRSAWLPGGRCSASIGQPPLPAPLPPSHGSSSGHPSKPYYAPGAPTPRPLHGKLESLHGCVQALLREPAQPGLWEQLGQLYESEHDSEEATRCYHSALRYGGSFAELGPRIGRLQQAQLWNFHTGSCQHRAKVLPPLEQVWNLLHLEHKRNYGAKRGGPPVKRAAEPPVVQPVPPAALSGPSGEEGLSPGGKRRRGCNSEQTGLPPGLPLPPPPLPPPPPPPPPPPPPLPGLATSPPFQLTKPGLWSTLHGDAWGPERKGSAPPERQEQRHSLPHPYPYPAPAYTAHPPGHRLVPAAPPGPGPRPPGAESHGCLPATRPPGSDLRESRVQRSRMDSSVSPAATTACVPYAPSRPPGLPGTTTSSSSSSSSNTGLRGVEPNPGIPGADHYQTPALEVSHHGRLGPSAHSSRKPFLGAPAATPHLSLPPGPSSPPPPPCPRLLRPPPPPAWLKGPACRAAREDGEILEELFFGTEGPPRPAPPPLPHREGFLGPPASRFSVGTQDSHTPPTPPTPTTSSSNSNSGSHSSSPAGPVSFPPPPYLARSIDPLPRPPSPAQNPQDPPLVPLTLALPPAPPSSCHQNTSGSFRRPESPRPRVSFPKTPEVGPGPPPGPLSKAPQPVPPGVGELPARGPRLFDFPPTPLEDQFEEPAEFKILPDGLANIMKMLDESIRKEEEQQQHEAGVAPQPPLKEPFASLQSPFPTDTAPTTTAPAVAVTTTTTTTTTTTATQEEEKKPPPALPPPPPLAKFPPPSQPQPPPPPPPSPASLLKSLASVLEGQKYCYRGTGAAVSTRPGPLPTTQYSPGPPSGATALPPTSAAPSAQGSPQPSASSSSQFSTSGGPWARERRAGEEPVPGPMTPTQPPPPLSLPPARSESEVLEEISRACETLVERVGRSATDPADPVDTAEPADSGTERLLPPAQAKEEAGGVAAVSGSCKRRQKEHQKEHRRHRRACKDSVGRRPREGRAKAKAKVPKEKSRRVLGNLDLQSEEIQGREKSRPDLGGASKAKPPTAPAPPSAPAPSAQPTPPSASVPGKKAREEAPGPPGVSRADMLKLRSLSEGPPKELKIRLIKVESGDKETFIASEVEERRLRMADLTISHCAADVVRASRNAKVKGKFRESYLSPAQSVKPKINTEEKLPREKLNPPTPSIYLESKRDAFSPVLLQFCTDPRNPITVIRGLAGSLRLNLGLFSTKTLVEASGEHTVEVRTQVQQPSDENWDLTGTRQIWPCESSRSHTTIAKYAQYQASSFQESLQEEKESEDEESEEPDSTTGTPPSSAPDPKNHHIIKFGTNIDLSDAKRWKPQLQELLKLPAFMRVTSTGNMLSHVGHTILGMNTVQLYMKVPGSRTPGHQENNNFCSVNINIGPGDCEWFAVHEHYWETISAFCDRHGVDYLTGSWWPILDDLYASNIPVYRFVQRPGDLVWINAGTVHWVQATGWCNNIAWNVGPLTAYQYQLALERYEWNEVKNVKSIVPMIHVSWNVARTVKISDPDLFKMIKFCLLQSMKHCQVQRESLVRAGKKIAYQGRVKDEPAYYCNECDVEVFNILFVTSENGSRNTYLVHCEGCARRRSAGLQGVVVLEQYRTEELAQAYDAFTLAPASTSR

Regarding `CCN(CCN(C)C)C(=O)CNCc1cncc(C(N)=O)c1` [KDOAM-32], the EC50 in assay [1] and in assay [2] was over 100 µM in each case.
